Reference: paper PMC9574860, “Chemical Toolkit for PARK7: Potent, Selective, and High-Throughput” (Journal of Medicinal Chemistry, 2022)
Each block holds one compound with its values, some of them ahead of it.

Tests used:
PARK7 [1] = molecular target: T1, PARK7 (Homo sapiens, UniProt Q99497); experiment: DiFMUAc PARK7 activity assay; format: biochemical; parameters: GST (N, cleaved yes); made in house; host or cells: E. coli BL21(DE3) Rosetta2; details: for inhibition at 12.5 µM: read-out: DiFMuAc assay %Inhibiton (12.5 µM); for inhibition at 37.5 µM: read-out: DiFMuAc assay %Inhibiton (37.5 µM); for inhibition at 100 µM: read-out: DiFMuAc assay %Inhibiton (100 µM)
T1 sequence (Q99497 1-189): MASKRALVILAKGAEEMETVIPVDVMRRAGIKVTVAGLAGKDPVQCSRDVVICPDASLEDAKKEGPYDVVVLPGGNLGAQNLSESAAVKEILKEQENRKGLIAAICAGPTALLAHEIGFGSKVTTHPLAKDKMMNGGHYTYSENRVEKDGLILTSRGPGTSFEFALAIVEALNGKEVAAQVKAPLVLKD
Method: Compounds were transferred using a Labcyte Echo550 acoustic dispenser to obtain a 12-point serial dilution of 0.001 to 100 μM. Next, PARK7 (15 μL, final concentration of 0.1 μM) was dispensed with a Biotek MultiFlowFX liquid dispenser and incubated for 1 h, followed by dispensing the substrate DiFMUAc (5 μL, final concentration of 300 μM). The fluorescence intensity (FI) signal was monitored with a BMG Labtech PHERAstar plate reader (λex/em 350/450 nm) for 1 h.
The validation was performed in the PBS buffer with a reaction volume of 20 μL per well in triplicate. […] Next, PARK7 (15 μL, final concentration 0.1 μM) was dispensed with a Biotek MultiFlowFX liquid dispenser and incubated for 2 h, followed by dispensing the substrate DiFMUAc (5 μL, final concentration 300 μM). The FI signal was monitored with a BMG Labtech PHERAstar plate reader (λex/em 350/450 nm) for 1 h. The increase of FI signal compared with reference controls was used to calculate the remaining enzyme activity. The inhibition percentage of these 22 compounds was plotted as a heatmap using GraphPad Prism 9.0.1 software. Color gradients indicate inhibition percentage, no inhibiton (white) and full inhibition (blue).

PARK7 [2] = molecular target: T1, PARK7; experiment: FP assay with Rhodamine110 probe JYQ-107 (IC50 and hit validation); format: binding; parameters: GST (N, cleaved yes); made in house; host or cells: E. coli BL21(DE3) Rosetta2; details: for inhibition at 12.5 µM: read-out: FP assay %Inhibiton (12.5 µM); for inhibition at 37.5 µM: read-out: FP assay %Inhibiton (37.5 µM); for inhibition at 100 µM: read-out: FP assay %Inhibiton (100 µM)
Method: The assay was performed using the conditions as described above with a reaction volume of 20 μL per well in triplicate. Stock solutions of JYQ-88 of 1 and 0.1 mM were prepared. […] The FP signal was monitored with a BMG Labtech PHERAstar plate reader (λex/em 480/520 nm) for 2 h.
The validation was performed using the conditions as described above with a reaction volume of 20 μL per well in triplicate. […] The FP signal was monitored with a BMG Labtech PHERAstar plate reader (λex/em 480/520 nm) for 2 h. The relative loss of FP signal compared with reference controls was used to calculate the remaining enzyme activity. Inhibition percentage of these 40 compounds was plotted as a heatmap using GraphPad Prism 9.0.1 software. Color gradients indicate inhibition percentage, no inhibiton (white) and full inhibition (blue).

[3] = 12.5 µM compound, PARK7 0.1 μM, 2 h preincubation, DiFMUAc 300 μM
[4] = 37.5 µM compound, PARK7 0.1 μM, 2 h preincubation, DiFMUAc 300 μM
[5] = 100 µM compound, PARK7 0.1 μM, 2 h preincubation, DiFMUAc 300 μM
[6] = 12.5 µM compound, PARK7 0.2 μM, 1 h preincubation, JYQ-107 20 nM
[7] = 37.5 µM compound, PARK7 0.2 μM, 1 h preincubation, JYQ-107 20 nM
[8] = 100 µM compound, PARK7 0.2 μM, 1 h preincubation, JYQ-107 20 nM

SMILES: O=C(CSC(F)(F)F)Nc1cccc(S(=O)(=O)F)c1 [Z1713569375]
- DiFMuAc assay %Inhibiton (12.5 µM) (PARK7 [1]; [3]): 81.4%
- DiFMuAc assay %Inhibiton (37.5 µM) (PARK7 [1]; [4]): 49.1%
- DiFMuAc assay %Inhibiton (100 µM) (PARK7 [1]; [5]): 97.1%
- FP assay %Inhibiton (12.5 µM) (PARK7 [2]; [6]): 98.9%
- FP assay %Inhibiton (37.5 µM) (PARK7 [2]; [7]): 100.0%
- FP assay %Inhibiton (100 µM) (PARK7 [2]; [8]): 100.0%

SMILES: O=C(Nc1cccc(S(=O)(=O)F)c1)C1CCCC1 [Z1713569513]
- FP assay %Inhibiton (12.5 µM) (PARK7 [2]; [6]): 67.6%
- FP assay %Inhibiton (37.5 µM) (PARK7 [2]; [7]): 76.9%
- FP assay %Inhibiton (100 µM) (PARK7 [2]; [8]): 100.0%

SMILES: COC(=O)Nc1ccc(S(=O)(=O)F)cc1[N+](=O)[O-] [Z1741956298]
- FP assay %Inhibiton (12.5 µM) (PARK7 [2]; [6]): 72.6%
- FP assay %Inhibiton (37.5 µM) (PARK7 [2]; [7]): 75.8%
- FP assay %Inhibiton (100 µM) (PARK7 [2]; [8]): 100.0%

SMILES: CC(C)CC(=O)NNS(=O)(=O)c1cccc(S(=O)(=O)F)c1 [Z1764309349]
- inhibition at 12.5 µM (PARK7 [1]): 94%
- inhibition at 37.5 µM (PARK7 [1]): 94.6%
- inhibition at 100 µM (PARK7 [1]): 94.4%
- inhibition at 12.5 µM (PARK7 [2]): 100%
- inhibition at 37.5 µM (PARK7 [2]): 100%
- inhibition at 100 µM (PARK7 [2]): 100%

SMILES: O=S(=O)(F)c1cccc(S(=O)(=O)Nc2cccnc2O)c1 [Z1764375816]
- inhibition at 12.5 µM (PARK7 [1]): 97.1%
- inhibition at 37.5 µM (PARK7 [1]): 99.2%
- inhibition at 100 µM (PARK7 [1]): 100%
- inhibition at 12.5 µM (PARK7 [2]): 100%
- inhibition at 37.5 µM (PARK7 [2]): 100%
- inhibition at 100 µM (PARK7 [2]): 100%

SMILES: O=C(NNS(=O)(=O)c1cccc(S(=O)(=O)F)c1)C1CCC1 [Z1764398070]
- inhibition at 12.5 µM (PARK7 [1]): 95.7%
- inhibition at 37.5 µM (PARK7 [1]): 98%
- inhibition at 100 µM (PARK7 [1]): 96.8%
- inhibition at 12.5 µM (PARK7 [2]): 100%
- inhibition at 37.5 µM (PARK7 [2]): 100%
- inhibition at 100 µM (PARK7 [2]): 100%

SMILES: CSC1(C(=O)Nc2cccc(S(=O)(=O)F)c2)CC1 [Z1832812427]
- DiFMuAc assay %Inhibiton (12.5 µM) (PARK7 [1]; [3]): 98.0%
- DiFMuAc assay %Inhibiton (37.5 µM) (PARK7 [1]; [4]): 92.6%
- DiFMuAc assay %Inhibiton (100 µM) (PARK7 [1]; [5]): 100.0%
- FP assay %Inhibiton (12.5 µM) (PARK7 [2]; [6]): 98.3%
- FP assay %Inhibiton (37.5 µM) (PARK7 [2]; [7]): 100.0%
- FP assay %Inhibiton (100 µM) (PARK7 [2]; [8]): 100.0%

SMILES: O=C1CCC(CC(=O)Nc2cccc(S(=O)(=O)F)c2)CC1 [Z1832812448]
- inhibition at 12.5 µM (PARK7 [2]): 0%
- inhibition at 37.5 µM (PARK7 [2]): 0%
- inhibition at 100 µM (PARK7 [2]): 0%

- inhibition at 12.5 µM (PARK7 [2]; [6]): 0%
- inhibition at 37.5 µM (PARK7 [2]; [7]): 0%
- inhibition at 100 µM (PARK7 [2]; [8]): 23.5%
SMILES: O=C(CCl)c1ccccn1 [Z1954803958]

- inhibition at 12.5 µM (PARK7 [2]; [6]): 4.5%
- inhibition at 37.5 µM (PARK7 [2]; [7]): 7.6%
- inhibition at 100 µM (PARK7 [2]; [8]): 51.6%
SMILES: O=C(CCl)c1cscn1 [Z2491497305]

- inhibition at 12.5 µM (PARK7 [1]; [3]): 94.3%
- inhibition at 37.5 µM (PARK7 [1]; [4]): 95.5%
- inhibition at 100 µM (PARK7 [1]; [5]): 93.2%
- inhibition at 12.5 µM (PARK7 [2]; [6]): 100%
- inhibition at 37.5 µM (PARK7 [2]; [7]): 100%
- inhibition at 100 µM (PARK7 [2]; [8]): 100%
SMILES: O=C(CCl)C1CCOCC1 [Z2491498268]

- inhibition at 12.5 µM (PARK7 [2]; [6]): 20.7%
- inhibition at 37.5 µM (PARK7 [2]; [7]): 37.4%
- inhibition at 100 µM (PARK7 [2]; [8]): 88.1%
SMILES: O=C(CCl)c1ccc(F)c(Cl)c1 [Z2492395560]

SMILES: Cc1conc1NS(=O)(=O)c1cccc(S(=O)(=O)F)c1 [Z2509450956]
- DiFMuAc assay %Inhibiton (12.5 µM) (PARK7 [1]; [3]): 98.5%
- DiFMuAc assay %Inhibiton (37.5 µM) (PARK7 [1]; [4]): 98.2%
- DiFMuAc assay %Inhibiton (100 µM) (PARK7 [1]; [5]): 97.5%
- FP assay %Inhibiton (12.5 µM) (PARK7 [2]; [6]): 100.0%
- FP assay %Inhibiton (37.5 µM) (PARK7 [2]; [7]): 100.0%
- FP assay %Inhibiton (100 µM) (PARK7 [2]; [8]): 100.0%

SMILES: CC(C#N)NS(=O)(=O)c1cccc(S(=O)(=O)F)c1 (stereo not drawn) [Z2509451091]
- DiFMuAc assay %Inhibiton (12.5 µM) (PARK7 [1]; [3]): 94.5%
- DiFMuAc assay %Inhibiton (37.5 µM) (PARK7 [1]; [4]): 95.2%
- DiFMuAc assay %Inhibiton (100 µM) (PARK7 [1]; [5]): 94.5%
- FP assay %Inhibiton (12.5 µM) (PARK7 [2]; [6]): 100.0%
- FP assay %Inhibiton (37.5 µM) (PARK7 [2]; [7]): 100.0%
- FP assay %Inhibiton (100 µM) (PARK7 [2]; [8]): 100.0%

SMILES: CCCc1nnc(NS(=O)(=O)c2cccc(S(=O)(=O)F)c2)o1 [Z2509455014]
- inhibition at 12.5 µM (PARK7 [1]): 97.8%
- inhibition at 37.5 µM (PARK7 [1]): 99.3%
- inhibition at 100 µM (PARK7 [1]): 96.5%
- inhibition at 12.5 µM (PARK7 [2]): 100%
- inhibition at 37.5 µM (PARK7 [2]): 100%
- inhibition at 100 µM (PARK7 [2]): 100%

SMILES: O=C(NCCCS(=O)(=O)F)c1cccs1 [Z3267389796]
- FP assay %Inhibiton (12.5 µM) (PARK7 [2]; [6]): 83.1%
- FP assay %Inhibiton (37.5 µM) (PARK7 [2]; [7]): 80.1%
- FP assay %Inhibiton (100 µM) (PARK7 [2]; [8]): 100.0%

SMILES: O=[N+]([O-])c1ccc(C(F)(F)F)c(S(=O)(=O)F)c1 [Z3396482545]
- FP assay %Inhibiton (12.5 µM) (PARK7 [2]; [6]): 36.7%
- FP assay %Inhibiton (37.5 µM) (PARK7 [2]; [7]): 36.2%
- FP assay %Inhibiton (100 µM) (PARK7 [2]; [8]): 92.4%
